In patent US9611224B2 (Hoffmann-La Roche Inc., priority 2012, dated 2017):
Counter-ions that a name gives are not always drawn.

Each compound was assayed against BIR3 domain of XIAP (Homo sapiens (Human), UniProt P98170) (assay: TR-FRET assay for BIR3 (inhibition of binding to Peptide A)). Conditions: 6x His-tagged BIR3 domain (aa 241-356 of XIAP), 20 nM Peptide A, 10 concentrations.
Sequence of BIR3 domain of XIAP (P98170 other isoform, or with tags, fused parts or gaps): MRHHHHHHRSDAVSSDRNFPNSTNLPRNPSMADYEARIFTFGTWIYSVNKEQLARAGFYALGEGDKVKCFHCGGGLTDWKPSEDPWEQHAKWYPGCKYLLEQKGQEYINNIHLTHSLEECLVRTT
Procedure: TR-FRET Assay for BIR2 and BIR3
Percentage of inhibition at each concentration was determined to generate an IC50 value for each test compound.
In the case of `CN[C@@H](C)C(=O)N[C@H]1CCc2ccccc2N(Cc2cccc3c(Cc4ccccc4)cccc23)C1=O` [Example 49k, (S)—N—[(S)-1-(5-Benzyl-naphthalen-1-ylmethyl)-2-oxo-2,3,4,5-tetrahydro-1H-benzo[b]azepin-3-yl]-2-methylamino-propionamide hydrochloride], the IC50 is reported as over 54.8 µM.
In the case of `CN[C@@H](C)C(=O)N[C@H]1CCc2ccccc2N(Cc2ccc(C3CC3)c3ccccc23)C1=O` [Example 49m, (S)—N—[(S)-1-(4-Cyclopropyl-naphthalen-1-ylmethyl)-2-oxo-2,3,4,5-tetrahydro-1H-benzo[b]azepin-3-yl]-2-methylamino-propionamide hydrochloride], the IC50 is reported as over 54.8 µM.
`CN[C@@H](C)C(=O)N[C@H]1CCc2ccccc2N(Cc2cccc3c(CN4CCNCC4)cccc23)C1=O` [Example 49n, (S)-2-Methylamino-N—[(S)-2-oxo-1-(5-piperazin-1-ylmethyl-naphthalen-1-ylmethyl)-2,3,4,5-tetrahydro-1H-benzo[b]azepin-3-yl]-propionamide hydrochloride] showed an IC50 of over 54.8 µM.
Compound `CN[C@@H](C)C(=O)N[C@H]1CCc2ccccc2N(Cc2ccc(CN3CCOCC3)c3ccccc23)C1=O` [Example 49o, (S)-2-Methylamino-N—[(S)-1-(4-morpholin-4-ylmethyl-naphthalen-1-ylmethyl)-2-oxo-2,3,4,5-tetrahydro-1H-benzo[b]azepin-3-yl]-propionamide hydrochloride] has an IC50 of over 54.8 µM.
`CN[C@@H](C)C(=O)N[C@H]1CCc2ccccc2N(Cc2ccc(CN3CCCCC3)c3ccccc23)C1=O` [Example 49q, (S)-2-Methylamino-N—[(S)-2-oxo-1-(4-piperidin-1-ylmethyl-naphthalen-1-ylmethyl)-2,3,4,5-tetrahydro-1H-benzo[b]azepin-3-yl]-propionamide hydrochloride] showed an IC50 of over 54.8 µM.
`CN[C@@H](C)C(=O)N[C@H]1CCc2ccccc2N(Cc2c(OC)ccc3cc(CN4CCNCC4)ccc23)C1=O` [Example 49r, (S)—N—[(S)-1-(2-Methoxy-6-piperazin-1-ylmethyl-naphthalen-1-ylmethyl)-2-oxo-2,3,4,5-tetrahydro-1H-benzo[b]azepin-3-yl]-2-methylamino-propionamide hydrochloride] was tested, and the IC50 was over 54.8 µM.
Compound `CN[C@@H](C)C(=O)N[C@H]1CCc2ccccc2N(Cc2ccc(CN3CCNCC3)c3ccccc23)C1=O` [Example 49s, (S)-2-Methylamino-N—[(S)-2-oxo-1-(4-piperazin-1-ylmethyl-naphthalen-1-ylmethyl)-2,3,4,5-tetrahydro-1H-benzo[b]azepin-3-yl]-propionamide hydrochloride] has an IC50 of over 54.8 µM.
`CN[C@@H](C)C(=O)N[C@H]1CCc2ccccc2N(Cc2cccc3cccc(C4CC4)c23)C1=O` [Example 49t, (S)—N—[(S)-1-(8-Cyclopropyl-naphthalen-1-ylmethyl)-2-oxo-2,3,4,5-tetrahydro-1H-benzo[b]azepin-3-yl]-2-methylamino-propionamide hydrochloride] was tested, and the IC50 was over 54.8 µM.
`CN[C@@H](C)C(=O)N[C@H]1CCc2ccccc2N(Cc2c(OC)ccc3cc(-c4ccccc4)ccc23)C1=O` [Example 49u, (S)—N—[(S)-1-(2-Methoxy-6-phenyl-naphthalen-1-ylmethyl)-2-oxo-2,3,4,5-tetrahydro-1H-benzo[b]azepin-3-yl]-2-methylamino-propionamide hydrochloride] showed an IC50 of over 54.8 µM.
Work on `CN[C@@H](C)C(=O)N[C@H]1CCc2ccccc2N(Cc2c(OC)ccc3cc(C(=O)OC)ccc23)C1=O` [Example 50, 6-Methoxy-5-[(S)-3-((S)-2-methylamino-propionylamino)-2-oxo-2,3,4,5-tetrahydro-benzo[b]azepin-1-ylmethyl]-naphthalene-2-carboxylic acid methyl ester hydrochloride] yielded an IC50 of over 54.8 µM.
For `CN[C@@H](C)C(=O)N[C@H]1CCc2ccccc2N(Cc2c(OC)ccc3cc(C(=O)O)ccc23)C1=O` [Example 51, 6-Methoxy-5-[(S)-3-((S)-2-methylamino-propionylamino)-2-oxo-2,3,4,5-tetrahydro-benzo[b]azepin-1-ylmethyl]-naphthalene-2-carboxylic acid], the IC50 was over 54.8 µM.
For `CN[C@@H](C)C(=O)N[C@H]1CCc2ccccc2N(Cc2c(OC)ccc3cc(C(=O)NS(C)(=O)=O)ccc23)C1=O` [Example 52a, (S)—N—[(S)-1-(6-Methanesulfonylaminocarbonyl-2-methoxy-naphthalen-1-ylmethyl)-2-oxo-2,3,4,5-tetrahydro-1H-benzo[b]azepin-3-yl]-2-methylamino-propionamide], the IC50 was 45 µM.
Work on `CCCS(=O)(=O)NC(=O)c1cccc2c(CN3C(=O)[C@@H](NC(=O)[C@H](C)NC)CCc4ccccc43)c(OC)ccc12` [Example 52b, (S)—N—{(S)-1-[2-Methoxy-5-(propane-1-sulfonylaminocarbonyl)-naphthalen-1-ylmethyl]-2-oxo-2,3,4,5-tetrahydro-1H-benzo[b]azepin-3-yl}-2-methylamino-propionamide hydrochloride] yielded an IC50 of over 54.8 µM.
`CN[C@@H](C)C(=O)N[C@H]1CCc2ccccc2N(Cc2c(OC)ccc3c(C(=O)NS(C)(=O)=O)cccc23)C1=O` [Example 52c, (S)—N—[(S)-1-(5-Methanesulfonylaminocarbonyl-2-methoxy-naphthalen-1-ylmethyl)-2-oxo-2,3,4,5-tetrahydro-1H-benzo[b]azepin-3-yl]-2-methylamino-propionamide hydrochloride] gave an IC50 of over 54.8 µM.
Work on `CN[C@@H](C)C(=O)N[C@H]1CCc2ccccc2N(Cc2c(OC)ccc3c(C(=O)OC)cccc23)C1=O` [Example 52e, 6-Methoxy-5-[(S)-3-((S)-2-methylamino-propionylamino)-2-oxo-2,3,4,5-tetrahydro-benzo[b]azepin-1-ylmethyl]-naphthalene-1-carboxylic acid methyl ester hydrochloride] yielded an IC50 of over 54.8 µM.
`CN[C@@H](C)C(=O)N[C@H]1CCc2ccccc2N(Cc2cccc3c(C(=O)O)cccc23)C1=O` [Example 52f, 5-[(S)-3-((S)-2-Methylamino-propionylamino)-2-oxo-2,3,4,5-tetrahydro-benzo[b]azepin-1-ylmethyl]-naphthalene-1-carboxylic acid hydrochloride] showed an IC50 of over 54.8 µM.
`CN[C@@H](C)C(=O)N[C@H]1CCc2ccccc2N(Cc2cccc3c(C(=O)OC)cccc23)C1=O` [Example 52g, 5-[(S)-3-((S)-2-Methylamino-propionylamino)-2-oxo-2,3,4,5-tetrahydro-benzo[b]azepin-1-ylmethyl]-naphthalene-1-carboxylic acid methyl ester hydrochloride] was tested, and the IC50 was over 54.8 µM.
`CN[C@@H](C)C(=O)N[C@H]1CCc2ccccc2N(Cc2c(OC)ccc3ccc(C(=O)OC)cc23)C1=O` [Example 52h, 7-Methoxy-8-[(S)-3-((S)-2-methylamino-propionylamino)-2-oxo-2,3,4,5-tetrahydro-benzo[b]azepin-1-ylmethyl]-naphthalene-2-carboxylic acid methyl ester hydrochloride] was tested, and the IC50 was over 54.8 µM.
In the case of `CN[C@@H](C)C(=O)N[C@H]1CCc2ccccc2N(Cc2c(OC)ccc3c(C#N)cccc23)C1=O` [Example 53, (S)—N—[(S)-1-(5-Cyano-2-methoxy-naphthalen-1-ylmethyl)-2-oxo-2,3,4,5-tetrahydro-1H-benzo[b]azepin-3-yl]-2-methylamino-propionamide hydrochloride], the IC50 is reported as over 54.8 µM.
